From patent US9732046B2, “Substituted 1,2,4-triazines as tubulin inhibitors” (YM Biosciences Australia Pty Ltd., priority 2003, dated 2017)

Experiments:
[1] = tested on: Tubulin (microtubule protein); assay: Tubulin assay (turbidometric assay of microtubule assembly); format: biochemical; details: 50 μM, absorbance at 340 nm, 37° C.
Protocol: Turbidometric assays of microtubule assembly were performed by incubating microtubule protein in cuvettes at 37° C. in a thermostatically controlled spectrophotometer measuring the change in absorbance at 340 nm over time. The microtubule protein was incubated with the each test compound at 0° C. and polymerisation was initiated by addition of 1 mM GTP, prior to heating to 37° C.

DU145 (Prostate Cancer) = assay: Cellular growth inhibition assay (MTT), DU145; format: cell-based; details: Homo sapiens
Protocol: (§1) For screening purposes, compounds were diluted in 96 well plates at a concentration of 20 μM. Plates were warmed at 37° C. for 30 minutes before assay.
(§2) K562 (Chronic Myeloid Leukemia), PC3 (Prostate Cancer), and DU145 (Prostate Cancer) were obtained from the American Type Culture Collection (ATCC). K562 was grown in RPMI, with 10% FBS with Glutamx added. DU145 cells were cultured in DMED, with 10% FBS and Glutamx and MEM non-essential amino acids added. PC3 cells were grown in F12K medium, with 10% FBS and Glutamx and MEM non-essential amino acids added. All cells were grown at 37° C. in 5% CO2.
(§3) Cell suspensions were prepared by harvesting cells from culture. (Cells used in this test should be in later log phase growth and high viability.) Cells were diluted in correct growth medium to 1.1× final concentration (from 50000 cell/mL to 200,000 cell/mL, depending on cell line).
(§4) Compounds to be tested were added (10 μL, 10× final concentration) to a flat bottom 96-well plate. The cellular suspension (90 μL per well) was added, and the plate incubated for 40 hr at 37° C., 5% CO2. MTT (20 μL per well, 5 mg/mL in PBS) was added and the plates were returned to the incubator for a further 6 hours. Lysis buffer (100 μL per well, 10% SDS, 0.01N HCl) was added and the plate stored in the incubator overnight. The plate was then read at 590 nm.

[2] = target: T1, TelJak3 (BaF3 TELJAK cells, TEL/JAK3 fusion) (Homo sapiens, UniProt P52333); assay: Cellular growth inhibition assay (MTT), BaF3 TEL:JAK3 cell line; format: cell-based
T1 construct: For JAK3 Sa1 I/Not I cleaved kinase domain PCR product was ligated with BamH I/Sa1 I cleaved TELproduct; expressed in transfected cells; host or cells: BaF3 cells bearing the pTET-off plasmid, transfected with pTELJAK3 (pTRE2 vector); the other entry of the earlier key: ETV6 (P41212, Transcription factor ETV6)
T1 sequence (P52333 with tags, fused parts or gaps): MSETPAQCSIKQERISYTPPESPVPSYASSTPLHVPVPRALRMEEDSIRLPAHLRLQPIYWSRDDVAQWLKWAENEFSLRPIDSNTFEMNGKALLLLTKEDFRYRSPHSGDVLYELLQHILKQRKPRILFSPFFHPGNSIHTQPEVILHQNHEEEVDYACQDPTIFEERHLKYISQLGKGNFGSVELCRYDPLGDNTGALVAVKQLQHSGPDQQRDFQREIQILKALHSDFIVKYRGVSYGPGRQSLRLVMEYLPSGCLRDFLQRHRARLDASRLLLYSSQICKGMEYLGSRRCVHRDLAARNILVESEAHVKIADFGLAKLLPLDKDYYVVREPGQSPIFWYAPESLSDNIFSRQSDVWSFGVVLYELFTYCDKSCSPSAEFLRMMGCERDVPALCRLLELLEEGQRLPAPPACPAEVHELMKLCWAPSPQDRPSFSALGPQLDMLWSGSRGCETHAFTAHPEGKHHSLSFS
Protocol: as §1
(§5) The coding region encompassing nucleotides 1-487 of TEL was amplified by PCR using the oligonucleotides 5TEL (5′-GGAGGATCCTGATCTCTCTCGCTGTGAGAC-3′) (SEQ ID NO: 1) and 3TEL (5′-AGGC GTCGACTTCTTCTTGATGGTTCTG-3′) (SEQ ID NO: 2) and U937 mRNA as template. A BamH I site was incorporated into the 5TEL primer, and a Sal I site was incorporated into the 3TEL primer. The regions encompassing the kinase domain of JAK2 (nucleotides 2994-3914; JAK2F 5′-ACGC GTCGACGGTGCCTTTGAAGACCGGGAT-3 (SEQ ID NO: 3); JAK2R 5′-ATAGTTTAGCGGCCGCTCAGAATGAAGGTCATTT-3′) (SEQ ID NO: 4) and JAK3 (nucleotides 2520-3469; JAK3F 5′-GAAGTCGACTATGCCTGCCAAGACCCCACGATCTT-3′ (SEQ ID NO: 5); JAK3R 5′-GGATCTAGACTATGAAAAGGACAGGGAGTGGTGTTT-3′ (SEQ ID NO: 6)) were generated by PCR using Taq DNA polymerase (Gibco/BRL) and U937 mRNA as template. A Sal I site was incorporated into the forward primer of JAK2 and JAK3, a Not I site was incorporated into the JAK2 reverse primer and a Xba I site was added to the reverse primer of JAK3.
(§6) A TEL/Jak2 fusion was generated by digestion of the TELPCR product with BamH I/Sa1 I, digestion of the JAK2 PCR product with Sa1 I/Not I followed by ligation and subcloning into the mammalian expression Vector pTRE 2 (Clontech) digested with BamH I-Not I (pTELJAK2). For JAK3 Sa1 I/Not I cleaved kinase domain PCR product was ligated with BamH I/Sa1 I cleaved TELproduct followed by ligation into BamH I/Not I cleaved pTRE2 (pTELJAK3).
(§7) The growth factor dependent myelomonocytic cell line BaF3 bearing the pTET-off plasmid (Clontech) was transfected with either pTELJAK2 or pTELJAK3 and the cells selected for factor independent growth. BaF 3 wild type cells were cultured in DMEM 10% FCS, 10% WEHI 3B conditioned medium. BaF3 TELJAK cells were cultured in DMEM 10% Tet-System Approved FBS (without WEHI 3B conditioned medium).
as §3, §4

[3] = tested on: K562 (Chronic Myeloid Leukemia); assay: Cellular growth inhibition assay (MTT), K562; format: cell-based; details: Homo sapiens, Table 1, 40 hr incubation
Protocol: as §1, §2, §3, §4

PC3 (Prostate Cancer) = assay: Cellular growth inhibition assay (MTT), PC3; format: cell-based; details: Table 1, 40 hr incubation
Protocol: as §1, §2, §3, §4

[4] = target: T2, TelJak2 (BaF3 TELJAK cells, TEL/Jak2 fusion) (Homo sapiens, UniProt O60674); assay: Cellular growth inhibition assay (MTT), BaF3 TEL:JAK2 cell line; format: cell-based
T2 construct: The regions encompassing the kinase domain of JAK2 (nucleotides 2994-3914); expressed in transfected cells; host or cells: BaF3 cells bearing the pTET-off plasmid, transfected with pTELJAK2 (pTRE2 vector); the other entry of the earlier key: ETV6 (P41212, Transcription factor ETV6)
T2 sequence (O60674 with tags, fused parts or gaps): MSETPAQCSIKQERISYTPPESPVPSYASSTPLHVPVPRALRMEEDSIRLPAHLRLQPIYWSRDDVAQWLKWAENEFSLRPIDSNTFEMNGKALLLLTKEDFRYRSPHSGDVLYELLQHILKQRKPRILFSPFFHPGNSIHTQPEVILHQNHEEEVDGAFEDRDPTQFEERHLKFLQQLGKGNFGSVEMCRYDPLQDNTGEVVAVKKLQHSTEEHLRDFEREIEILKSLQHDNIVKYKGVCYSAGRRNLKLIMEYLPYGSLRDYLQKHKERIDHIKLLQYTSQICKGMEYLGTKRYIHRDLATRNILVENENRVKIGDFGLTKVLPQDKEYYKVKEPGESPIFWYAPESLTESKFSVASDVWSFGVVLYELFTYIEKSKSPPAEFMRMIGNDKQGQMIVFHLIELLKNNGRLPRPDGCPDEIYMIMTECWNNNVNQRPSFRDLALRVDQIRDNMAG
Protocol: as §1, §5, §6, §7, §3, §4

[5] = DU-145, Table 1, 40 hr incubation
[6] = DU-145, Table 2, 40 hr incubation

Row | Compound | Tubulin inhibition of tubulin polymerisation ([1]; Table 1) | inhibition at 20 µM (DU145 (Prostate Cancer); [5]) | inhibition at 20 µM ([2]; Table 1, 40 hr incubation) | inhibition at 20 µM [3] | inhibition at 20 µM (PC3 (Prostate Cancer)) | inhibition at 20 µM ([4]; Table 1, 40 hr incubation) | Tubulin inhibition of tubulin polymerisation ([1]; Table 2) | inhibition at 20 µM (DU145 (Prostate Cancer); [6]) | inhibition at 20 µM ([2]; Table 2, 40 hr incubation) | inhibition at 20 µM ([4]; Table 2, 40 hr incubation)
1 | CCCC(Nc1cncc(-c2ccc(OCCCCN(CC)CC)c(OC)c2)n1)c1ccccc1 (stereo not drawn) | + (compounds which inhibited tubulin polymerisation by greater than 50% at 50 μM) | > 50% | > 50% | > 50% | > 50% | > 50% |  |  |  | 
2 | CCCC(Nc1nnc(C)c(-c2ccc(O)c(OC)c2)n1)c1ccccc1 (stereo not drawn) | + (compounds which inhibited tubulin polymerisation by greater than 50% at 50 μM) | > 50% | > 50% | > 50% | > 50% | > 50% |  |  |  | 
3 | CCCC(Nc1cncc(-c2ccc(NC(=O)NCC)c(OC)c2)n1)c1cnccc1C (stereo not drawn) | + (compounds which inhibited tubulin polymerisation by greater than 50% at 50 μM) | > 50% | > 50% | > 50% | > 50% | > 50% |  |  |  | 
4 | CCCC(Nc1cc(-c2ccc(O)c(OC)c2)ncn1)c1cccnc1 (stereo not drawn) | + (compounds which inhibited tubulin polymerisation by greater than 50% at 50 μM) | > 50% | > 50% | > 50% | > 50% | > 50% |  |  |  | 
5 | COc1cc(-c2cc(N[C@@H](C)c3ccccc3)ncn2)ccc1O | + (compounds which inhibited tubulin polymerisation by greater than 50% at 50 μM) | > 50% | > 50% | > 50% | > 50% | > 50% |  |  |  | 
6 | CCCC(Nc1cncc(-c2ccc(NC(=O)NCC)c(OC)c2)n1)c1ccccn1 (stereo not drawn) | + (compounds which inhibited tubulin polymerisation by greater than 50% at 50 μM) | > 50% | > 50% | > 50% | > 50% | > 50% |  |  |  | 
7 | CCC[C@H](Nc1cncc(-c2ccc(NC(=O)NCC)c(C)c2)n1)c1cccnc1 | + (compounds which inhibited tubulin polymerisation by greater than 50% at 50 μM) | > 50% | > 50% | > 50% | > 50% | > 50% |  |  |  | 
8 | CCNC(=O)Nc1ccc(-c2ncc(C)c(N[C@@H](CC)c3cccnc3)n2)cc1OC | + (compounds which inhibited tubulin polymerisation by greater than 50% at 50 μM) | > 50% | > 50% | > 50% | > 50% | > 50% |  |  |  | 
9 | CCC[C@H](Nc1cncc(-c2ccc(NC(=O)NCC)c(OC)c2)n1)c1ccccc1 | + (compounds which inhibited tubulin polymerisation by greater than 50% at 50 μM) | > 50% | > 50% | > 50% | > 50% | > 50% |  |  |  | 
10 | CCCC(Nc1cncc(-c2ccc(OCCCCN3CCCC3)c(OC)c2)n1)c1ccccc1 (stereo not drawn) | + (compounds which inhibited tubulin polymerisation by greater than 50% at 50 μM) | > 50% | > 50% | > 50% | > 50% | > 50% |  |  |  | 
11 | CCCC(Nc1cncc(-c2ccc(NC(=O)NCC)c(OC)c2)n1)c1cccnc1C (stereo not drawn) | + (compounds which inhibited tubulin polymerisation by greater than 50% at 50 μM) | > 50% | > 50% | > 50% | > 50% | > 50% |  |  |  | 
12 | COc1cc(-c2cncc(NC(C)c3cccc(NC(=O)[C@H]4CCCN4)c3)n2)ccc1O (stereo partly drawn) |  |  |  |  |  |  | + (compounds which inhibited tubulin polymerisation by greater than 50% at 50 μM) | > 50% | > 50% | > 50%
13 | COc1cc(-c2cncc(NC(C)c3ccc(-c4cccnc4)cc3)n2)ccc1O (stereo not drawn) |  |  |  |  |  |  | + (compounds which inhibited tubulin polymerisation by greater than 50% at 50 μM) | > 50% | > 50% | > 50%
14 | COc1cc(-c2cncc(N[C@@H](C)c3ccccc3)n2)ccc1O |  |  |  |  |  |  | + (compounds which inhibited tubulin polymerisation by greater than 50% at 50 μM) | > 50% | > 50% | > 50%
15 | CC[C@H](Nc1cncc(-c2ccc(O)c(OC)c2)n1)c1ccccc1 |  |  |  |  |  |  | + (compounds which inhibited tubulin polymerisation by greater than 50% at 50 μM) | > 50% | > 50% | > 50%
16 | COc1cc(-c2cncc(NC(C)c3cccc(NC(=O)c4cccnc4)c3)n2)ccc1O (stereo not drawn) [drawing 127] |  |  |  |  |  |  | + (compounds which inhibited tubulin polymerisation by greater than 50% at 50 μM) | > 50% | > 50% | > 50%
17 | COc1cc(-c2cncc(NC(C)c3cccc(NC(=O)c4cccnc4)c3)n2)ccc1O (stereo not drawn) [drawing 124] |  |  |  |  |  |  | + (compounds which inhibited tubulin polymerisation by greater than 50% at 50 μM) |  |  | 
18 | CCCC(Nc1cncc(-c2ccc(CO)c(OC)c2)n1)c1cccnc1 (stereo not drawn) |  | < 50% | > 50% | > 50% | < 50% | > 50% |  |  |  | 
19 | CCCC(Nc1cncc(-c2cc(OC)c(OC)c(OC)c2)c1)c1ccccc1 (stereo not drawn) |  | < 50% | > 50% | > 50% | > 50% | > 50% |  |  |  | 
20 | CCCC(Nc1cncc(-c2ccc(C(=O)NCCN(C)C)cc2)n1)c1ccccc1 (stereo not drawn) |  | < 50% | > 50% | < 50% | < 50% | > 50% |  |  |  | 
